Experiments:
[1] = Biodistribution in normal mice; format: in vivo, ddY mice; details: for Blood / Heart / Intestine / Kidney / Liver / Lung / Muscle / Pancreas / Spleen / Stomach / Thyroid gland: normal mice, i.v.
Experimental: A saline solution (5% ethanol, v/v) of [^125I]TAP1 (0.035 MBq) was injected intravenously into the tail vein of ddY mice (males, 5 weeks old). The mice were sacrificed at various post-injection time points, and the organs of interest were removed. The organ weights were determined, and the radioactivity in the organs was measured with a well-type γ-counter.

[2] = Serum protein binding by rapid equilibrium dialysis; format: in vitro ADME; details: mouse plasma, 37 °C, 4 hr
Experimental: The serum protein binding ratio of [^125I]TAP1 was measured using rapid equilibrium dialysis (RED) devices (Thermo Fisher Scientific K.K.) following the manufacturer's procedures. Briefly, [^125I]TAP1 (0.02 MBq, 0.02 ml) and mouse plasma (0.3 ml) were mixed and placed to the sample chamber and 0.5 ml PBS (-) was placed in the RED device buffer chamber. After incubation at 37 °C for 4 hr, 0.05 ml of the samples were obtained from each chamber. The binding ratios were calculated as: (sample chamber radioactivity)-(buffer chamber radioactivity)/(sample chamber radioactivity) x 100 (%).

[3] = Partition coefficient, 1-octanol/phosphate buffer pH 7.4; format: physicochemical; details: 1-octanol/phosphate buffer (PBS(-))
Experimental: Experimental determination of the [^125I]TAP1 partition coefficient was performed with 1-octanol and phosphate buffer at pH 7.4. The two phases were pre-saturated, and a mixture solution of 3.0 ml 1-octanol and 3.0 ml PBS (-) was added to a tube containing 0.02 ml [^125I]TAP1 in PBS (-) (0.024 MBq, 5% ethanol, v/v). The test tube was vortexed and centrifuged (1,000×g, 5 min). Aliquots from the 1-octanol and buffer phases (0.5 ml) were counted with a well-type γ-counter. This procedure was repeated three times. The partition coefficient was calculated from the ratio of radioactivity in the organic and aqueous layers.

his-tagged FABP3 = molecular target: T1, his-tagged FABP3 (Homo sapiens, UniProt P05413); assay: Selectivity binding assay with FABP immobilized on Ni-NTA magnetic agarose beads; details: immobilized FABP3, 2 hr, room temperature
T1 construct: purchased Cayman Chemical Company
Experimental: (§1) For the selectivity binding assay, his-tagged FABP3 (0.75 mg/ml), FABP4 (0.75 mg/ml) and FABP5 (0.70 mg/ml) in 50 mM phosphate buffer containing 100 mM NaCl (20% glycerol, v/v, pH = 7.2) were used. Immobilization was performed following the manufacturer's procedures. Each solution of his-tagged FABP3 ([…], 1.5 µg), FABP4 (0.002 ml, 1.5 µg) or FABP5 (0.002 ml, 1.4 µg) was incubated with 0.02 ml Ni-NTA Magnetic Agarose Beads (Qiagen) and 0.5 ml protein binding buffer (50 mM NaH2PO4, 300 mM NaCl, 10 mM imidazole, pH = 8.0) at room temperature for 1 hr. After supernatant removal, protein binding buffer with 1% BSA was added, and the mixture was incubated at room temperature for 30 min. After removal of the supernatant, 0.4 ml of interaction buffer (50 mM NaH2PO4, 300 mM NaCl, 10 mM imidazole, and 0.005% Tween, v/v, pH = 8.0) and 0.05 ml [^125I]TAP1 (0.01 MBq) in interaction buffer (5% ethanol, v/v) were added. For measurement of non-specific binding, 0.05 ml of nonradioactive TAP1 in interaction buffer (5% ethanol, v/v, 11.3 µM) was added with the [^125I]TAP1. After incubation at room temperature for 2 hr, the supernatants were removed, and the beads washed with interaction buffer (5% ethanol, v/v). The radioactivity of beads in the tubes was measured with a well-type γ-counter (1480 Wizard3, PerkinElmer Japan Co., Osaka, Japan). Binding ratios were calculated as (radioactivity of beads)/(total applied radioactivity)/(protein abundance on beads)×100 (%Dose/µg protein).

his-tagged FABP4 = molecular target: T2, his-tagged FABP4 (Homo sapiens, UniProt P15090); assay: as above
T2 construct: purchased Cayman Chemical Company
Experimental: as §1

his-tagged FABP5 = molecular target: T3, his-tagged FABP5 (Homo sapiens, UniProt Q01469); assay: as above; details: immobilized FABP5, 2 hr, room temperature
T3 construct: purchased Cayman Chemical Company
Experimental: as §1

[4] = Metabolite analysis in liver and kidneys; format: in vivo, ddY mice; details: 1 hr after i.v. administration, normal mice
Experimental: A saline solution (5% ethanol, v/v) of [^125I]TAP1 (1.20 MBq) was injected intravenously into the tail vein of ddY mice (males, 5 weeks old), and animals were sacrificed 1 hr post-injection. The liver and kidneys were removed and homogenized in 1 ml ice-cold 30 mM Tris-HCl buffer (pH = 8.5) containing 5 mM magnesium acetate at 4 °C. After addition of 3 ml cold methanol and vortexing, tissue samples were centrifuged (10,000×g, 5 min). The supernatants were filtered, and the filtrate was analyzed by RP-HPLC as described above.

T2 sequence (P15090 whole entry): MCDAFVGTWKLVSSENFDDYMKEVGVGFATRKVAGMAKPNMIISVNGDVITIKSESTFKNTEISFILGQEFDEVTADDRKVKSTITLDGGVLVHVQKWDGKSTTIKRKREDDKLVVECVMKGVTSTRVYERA
T1 sequence (P05413 whole entry): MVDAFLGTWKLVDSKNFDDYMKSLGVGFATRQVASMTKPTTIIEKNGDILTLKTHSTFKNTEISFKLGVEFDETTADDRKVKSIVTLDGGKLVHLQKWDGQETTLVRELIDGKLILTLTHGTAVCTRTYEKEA
T3 sequence (Q01469 whole entry): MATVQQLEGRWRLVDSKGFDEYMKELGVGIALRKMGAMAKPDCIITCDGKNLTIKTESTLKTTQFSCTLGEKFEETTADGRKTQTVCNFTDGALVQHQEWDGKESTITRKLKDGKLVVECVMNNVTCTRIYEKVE

For `O=c1cc(COc2cccc([125I])c2)[nH]c2nc(-c3ccccc3)nn12` [[^125I]TAP1], the “stability against deiodination in vivo” value ([1]; low radioactivity in stomach and thyroid gland) was “stable against deiodination”, the Blood ([1]; 5 min) was 3.25±0.20 % injected dose per gram and the Heart ([1]; 5 min) was 1.59±0.54 % injected dose per gram. The Intestine ([1]; 5 min) was 2.21±1.43 % injected dose per gram, the Kidney ([1]; 5 min) was 15.30±9.93 % injected dose per gram and the Liver ([1]; 5 min) was 57.51±4.79 % injected dose per gram. The Lung ([1]; 5 min) was 3.12±1.11 % injected dose per gram, the Muscle ([1]; 5 min) was 0.73±0.51 % injected dose per gram and the Pancreas ([1]; 5 min) was 1.53±0.84 % injected dose per gram. For the same molecule, the Spleen ([1]; 5 min) was 1.54±0.60 % injected dose per gram, the Stomach ([1]; 5 min) was 0.40±0.14 % injected dose per organ and the Thyroid gland ([1]; 5 min) was 0.01±0.005 % injected dose per organ. It also gave a Blood ([1]; 15 min) of 3.91±0.75 % injected dose per gram, a Heart ([1]; 15 min) of 1.57±0.51 % injected dose per gram and an Intestine ([1]; 15 min) of 2.21±0.72 % injected dose per gram. It also gave a Kidney ([1]; 15 min) of 32.89±11.78 % injected dose per gram, a Liver ([1]; 15 min) of 47.58±2.57 % injected dose per gram and a Lung ([1]; 15 min) of 2.88±0.65 % injected dose per gram. The Muscle ([1]; 15 min) was 0.83±0.09 % injected dose per gram, the Pancreas ([1]; 15 min) was 1.23±0.26 % injected dose per gram and the Spleen ([1]; 15 min) was 1.84±0.43 % injected dose per gram. The Stomach ([1]; 15 min) was 0.76±0.14 % injected dose per organ, the Thyroid gland ([1]; 15 min) was 0.03±0.01 % injected dose per organ and the Blood ([1]; 30 min) was 3.45±0.41 % injected dose per gram. The Heart ([1]; 30 min) was 1.39±0.25 % injected dose per gram, the Intestine ([1]; 30 min) was 3.83±0.07 % injected dose per gram and the Kidney ([1]; 30 min) was 45.34±3.34 % injected dose per gram. It also gave a Liver ([1]; 30 min) of 50.91±7.27 % injected dose per gram, a Lung ([1]; 30 min) of 2.76±0.49 % injected dose per gram and a Muscle ([1]; 30 min) of 0.67±0.16 % injected dose per gram. It also gave a Pancreas ([1]; 30 min) of 0.89±0.12 % injected dose per gram, a Spleen ([1]; 30 min) of 1.29±0.13 % injected dose per gram and a Stomach ([1]; 30 min) of 0.92±0.21 % injected dose per organ. The Thyroid gland ([1]; 30 min) was 0.03±0.01 % injected dose per organ, the Blood ([1]; 60 min) was 2.02±0.35 % injected dose per gram and the Heart ([1]; 60 min) was 0.96±0.32 % injected dose per gram. For the same molecule, the Intestine ([1]; 60 min) was 5.10±1.43 % injected dose per gram, the Kidney ([1]; 60 min) was 45.89±13.85 % injected dose per gram and the Liver ([1]; 60 min) was 46.70±4.43 % injected dose per gram. The Lung ([1]; 60 min) was 1.93±0.91 % injected dose per gram, the Muscle ([1]; 60 min) was 0.64±0.20 % injected dose per gram and the Pancreas ([1]; 60 min) was 1.46±0.55 % injected dose per gram. The Spleen ([1]; 60 min) was 1.14±0.38 % injected dose per gram, the Stomach ([1]; 60 min) was 1.40±0.69 % injected dose per organ and the Thyroid gland ([1]; 60 min) was 0.02±0.08 % injected dose per organ. The Blood ([1]; 120 min) was 1.72±0.49 % injected dose per gram, the Heart ([1]; 120 min) was 1.11±0.23 % injected dose per gram and the Intestine ([1]; 120 min) was 10.58±1.93 % injected dose per gram. The Kidney ([1]; 120 min) was 50.84±18.75 % injected dose per gram, the Liver ([1]; 120 min) was 31.00±1.52 % injected dose per gram and the Lung ([1]; 120 min) was 1.46±0.13 % injected dose per gram. For the same molecule, the Muscle ([1]; 120 min) was 0.71±0.24 % injected dose per gram, the Pancreas ([1]; 120 min) was 0.64±0.1 % injected dose per gram and the Spleen ([1]; 120 min) was 1.44±1.21 % injected dose per gram. For the same molecule, the Stomach ([1]; 120 min) was 2.02±0.70 % injected dose per organ, the Thyroid gland ([1]; 120 min) was 0.14±0.21 % injected dose per organ and the “percentage bound to serum proteins” value [2] was “more than 99%”. For the same molecule, the logP [3] was 2.7 ± 0.1, the “binding to FABP3” value (his-tagged FABP3) was 1.4±0.5 % dose/µg protein and the “FABP4 binding relative to FABP3” value (his-tagged FABP4; FABP4 over FABP3) was 11.5 fold. For the same molecule, the “FABP4 binding relative to FABP5” value (his-tagged FABP4; FABP4 over FABP5) was 33.2 fold, the “binding to FABP4” value (his-tagged FABP4; immobilized FABP4, 2 hr, room temperature) was 16.3±3.4 % dose/µg protein and the “binding to FABP5” value (his-tagged FABP5) was 0.5±0.3 % dose/µg protein. The “intact form in kidneys” value [4] was “more than 90%” and the “intact form in liver” value [4] was “more than 90%”.

— publication PMC3986099, “Development of a Radioiodinated Triazolopyrimidine Probe for Nuclear Medical Imaging of Fatty Acid Binding Protein 4” (PLoS ONE, 2014)
